In general, solubility refers to the concentration that dissolves in the medium under given conditions.

The values below come from paper PMC10855879, “Formulation Studies with Cyclodextrins for Novel Selenium NSAID Derivatives” (International Journal of Molecular Sciences, 2024).

The nature of series [1]: Water solubility by quantitative 1H-NMR in D2O, alone or with cyclodextrin. The class given is physicochemical. The note with it: for solubility: 25 °C, thermodynamic from solid, 298 K; for Improvement of water solubility after exposure to β- and γ-CD (in words): complexes versus compounds alone. Here is the method: For all the Se-NSAID derivatives, the formation of inclusion complexes either with β- or γ-CDs was evaluated by quantitative proton nuclear magnetic resonance (^1H-NMR) spectroscopy (Figures S1–S40 in Supplementary Materials). The election for such CDs is based on the fact that β-CD is one of the most frequently used CDs for encapsulating NSAIDs. Additionally, given the size of the studied molecules, a larger CD such as γ-CDs was also evaluated.
The experimental formation of inclusion complexes with either β-CD or γ-CD was evaluated via quantitative ^1H-NMR spectroscopy. This method is based on the consideration that the integration for a given signal that is selected as a marker for a given compound is proportional to its concentration. Consequently, solutions of 0.5 mL in D2O (≥99.85% in deuterated component) with an excess of each compound were prepared, along with either 4 mg of dimethyl sulfone (as internal standard) or with the corresponding CD at 10 mM. ^1H-NMR spectra were recorded at 298 K on a Bruker Avance Neo at a proton resonance frequency of 400 MHz. The solubilities were calculated considering the ratio between the area of the peaks belonging to the internal standard or the CDs and the different hydrogens of the Se-NSAID derivatives.

The test system of a further series is colon cancer. On the set-up: method as in PMID 37759969. The note with it: in vitro and in vivo; cited from earlier work.
[2] abbreviates: water, D2O, compound alone, dimethyl sulfone internal standard, read-out: Water Solubility, Compound.
Setting [3] is: D2O with β-cyclodextrin, aqueous with cosolvent or surfactant or cyclodextrin, D2O, β-CD 10 mM, read-out: Water Solubility, Compound + β-CD.
Setting [4] is: D2O with γ-cyclodextrin, aqueous with cosolvent or surfactant or cyclodextrin, D2O, γ-CD 10 mM, read-out: Water Solubility, Compound + γ-CD.

Converted amounts (≈) assume the structure as drawn. “Also recorded” adds a separate entry of the source. Where two headings read alike, the source gives them in different places.

As to `COc1ccc2c(c1)c(CC(=O)[Se][Se]C(=O)Cc1c(C)n(C(=O)c3ccc(Cl)cc3)c3ccc(OC)cc13)c(C)n2C(=O)c1ccc(Cl)cc1` [II.2], the solubility came to 0.132 µM (≈ 0.111 µg/mL) in series [1] (setting [2]), 7.96 µM in series [1] (setting [3]) and 7.6 µM in series [1] (setting [4]).

For the compound `CC(C)Cc1ccc(C(C)C(=O)[Se][Se]C(=O)C(C)c2ccc(CC(C)C)cc2)cc1` (centres unmarked) [II.5], the values for the solubility in series [1] (setting [2]), in series [1] (setting [3]) and in series [1] (setting [4]) were 21.2 µM (≈ 11.4 µg/mL), 5420 µM and 7500 µM, respectively. The “Improvement of water solubility after exposure to β- and γ-CD (in words)” value in series [1] is “remarkable improvement; also recorded: remarkable increase; also recorded: almost two orders of magnitude”. Moreover, in series [1] (versus compound alone, D2O), the “Increase in water solubility with β-CD” value is given as “up to 250 fold”. In addition, the “Increase in water solubility with γ-CD” value in series [1] (versus compound alone, D2O) is listed as no more than 350 fold. The “Anticancer properties (in words)” value with colon cancer is “potent anticancer properties”.

As to `COc1ccc2c(c1)c(CC(=O)[Se]CC(=O)O)c(C)n2C(=O)c1ccc(Cl)cc1` [I.4a], the solubility amounted to 22.4 µM (≈ 10.7 µg/mL) in series [1] (setting [2]), 56.5 µM in series [1] (setting [3]) and 52.4 µM in series [1] (setting [4]).

For `COc1ccc2cc([C@H](C)C(=O)[Se][Se]C(=O)[C@@H](C)c3ccc4cc(OC)ccc4c3)ccc2c1` [II.3], the solubility in series [1] (setting [2]) worked out at 0.605 µM (≈ 0.354 µg/mL); in series [1] (setting [3]), 0.219 µM; in series [1] (setting [4]), 6.14 µM.

Turning to `CC(C(=O)[Se][Se]C(=O)C(C)c1cccc(C(=O)c2ccccc2)c1)c1cccc(C(=O)c2ccccc2)c1` (centres unmarked) [II.4], the solubility in series [1] (setting [2]) amounted to 5.57 µM (≈ 3.52 µg/mL); in series [1] (setting [3]), 27 µM; in series [1] (setting [4]), 17.7 µM.

Consider `COc1ccc2cc(C(C)C(=O)[Se]CCC#N)ccc2c1` (centres unmarked) [I.3e], for which the solubility in series [1] (setting [2]) was found to be 9.7 µM (≈ 3.36 µg/mL); in series [1] (setting [3]), 992 µM; in series [1] (setting [4]), 273 µM. Also, the “Improvement of water solubility after exposure to β- and γ-CD (in words)” value in series [1] is on record as “remarkable improvement; also recorded: remarkable increase; also recorded: almost two orders of magnitude”.

As to `COc1ccc2c(c1)c(CC(=O)[Se]CCC#N)c(C)n2C(=O)c1ccc(Cl)cc1` [I.4e], the solubility in series [1] (setting [2]) worked out at 5.72 µM (≈ 2.71 µg/mL); in series [1] (setting [3]) it was 45.5 µM; in series [1] (setting [4]), 42.1 µM.

For the compound `COc1ccc2c(c1)c(CC(=O)[Se]CC#N)c(C)n2C(=O)c1ccc(Cl)cc1` [I.4d], the results for the solubility in series [1] (setting [2]), in series [1] (setting [3]) and in series [1] (setting [4]) were 20 µM (≈ 9.2 µg/mL), 45.3 µM and 33.7 µM, respectively.

Regarding `CC(=O)Oc1ccccc1C(=O)[Se][Se]C(=O)c1ccccc1OC(C)=O` [II.1], the solubility in series [1] (setting [2]) amounted to 8.43 µM (≈ 4.08 µg/mL); in series [1] (setting [3]) it was 101 µM; in series [1] (setting [4]), 15.1 µM.

`COC(=O)C[Se]C(=O)Cc1c(C)n(C(=O)c2ccc(Cl)cc2)c2ccc(OC)cc12` [I.4b]: the values for the solubility in series [1] (setting [2]), in series [1] (setting [3]) and in series [1] (setting [4]) were 12 µM (≈ 5.91 µg/mL), 157 µM and 43.9 µM, respectively.
